Reference: ChEMBL document CHEMBL1201862, “PubChem BioAssay data set” (2004)
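Values below derive from 48-hour exposures of cells grown in 96-well plates, with endpoints linearly interpolated between the two concentrations bracketing the appropriate inhibition level. Abbreviation: GI50, concentration required for 50% inhibition of growth.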 Calls of active or inactive are those of the source. Rule as the data show it: active = GI50 up to about 1.1 µM and inactive = higher.

Key:
Assay in all cases: NCI anticancer screen, dose series, 48 h
CCRF-CEM = test system: CCRF-CEM
RPMI-8226 = test system: RPMI-8226
CAKI-1 = test system: CAKI-1
NCI-H23 = test system: NCI-H23
RXF 393 = test system: RXF 393
MDA-N = test system: MDA-N
HOP-92 = test system: HOP-92
SF-539 = test system: SF-539
PC-3 = test system: PC-3
Hs-578T = test system: Hs-578T
LOX IMVI = test system: LOX IMVI
UACC-62 = test system: UACC-62
MOLT-4 = test system: MOLT-4
NCI-H460 = test system: NCI-H460
EKVX = test system: EKVX
K562 = test system: K562
ACHN = test system: ACHN
A498 = test system: A498
NCI-H522 = test system: NCI-H522
SK-OV-3 = test system: SK-OV-3

Measured: GI50

CCCCCC(=O)Nc1[nH]nnc1C#N
inactive: CCRF-CEM > 100 µM | RPMI-8226 > 100 µM | CAKI-1 > 100 µM | NCI-H23 > 100 µM | RXF 393 > 100 µM | MDA-N > 100 µM | HOP-92 > 100 µM | SF-539 > 100 µM | PC-3 > 100 µM | Hs-578T > 100 µM | LOX IMVI > 100 µM | UACC-62 > 100 µM | MOLT-4 > 100 µM | NCI-H460 > 100 µM | EKVX > 100 µM | K562 > 100 µM | ACHN > 100 µM | A498 > 100 µM | NCI-H522 > 100 µM | SK-OV-3 > 100 µM

O=C1C[C@@H](Sc2ccccc2)C2(OCCO2)C2ON3CCCC[C@H]3[C@H]12 (stereo not given in full)
active: CCRF-CEM 0.92 µM | MOLT-4 0.989 µM
inactive: RPMI-8226 3.07 µM | CAKI-1 7.71 µM | NCI-H23 9.38 µM | RXF 393 4.48 µM | MDA-N 13.2 µM | HOP-92 7 µM | SF-539 1.94 µM | PC-3 7.36 µM | Hs-578T 10.8 µM | LOX IMVI 2.49 µM | UACC-62 6.03 µM | NCI-H460 9.66 µM | EKVX 10.8 µM | K562 2.11 µM | ACHN 2.49 µM | A498 30.5 µM | NCI-H522 2.15 µM | SK-OV-3 41.5 µM

COC(=O)/C=C1/OC(c2ccc(C)cc2C)=CC1=O
inactive: CCRF-CEM 3.42 µM | RPMI-8226 3.63 µM | CAKI-1 19.5 µM | NCI-H23 24.5 µM | RXF 393 12.1 µM | MDA-N 15.2 µM | HOP-92 16.6 µM | SF-539 17.2 µM | PC-3 17.8 µM | Hs-578T 33.4 µM | LOX IMVI 6.17 µM | UACC-62 10.6 µM | MOLT-4 3.55 µM | NCI-H460 19 µM | EKVX 65 µM | K562 2.81 µM | ACHN 15.8 µM | A498 20.7 µM | NCI-H522 14.1 µM | SK-OV-3 18.7 µM

C[C@@H]1O[C@@H]2OCC[C@@H]2C2=C1C(=O)c1ccccc1C2=O
inactive: CCRF-CEM 6.87 µM | RPMI-8226 7.23 µM | CAKI-1 15.2 µM | NCI-H23 4.88 µM | RXF 393 3.46 µM | MDA-N 1.85 µM | HOP-92 4.38 µM | SF-539 8.85 µM | PC-3 3.65 µM | Hs-578T 28.1 µM | LOX IMVI 1.92 µM | UACC-62 4.35 µM | MOLT-4 7.74 µM | NCI-H460 16.7 µM | EKVX 19.8 µM | K562 10.1 µM | ACHN 12.2 µM | A498 18 µM | NCI-H522 6.65 µM | SK-OV-3 28.4 µM

COc1c2ccccc2c(OC)c2nc(C)ccc12
inactive: CCRF-CEM 23.7 µM | RPMI-8226 81.8 µM | CAKI-1 > 94 µM | NCI-H23 > 100 µM | RXF 393 > 100 µM | MDA-N > 100 µM | HOP-92 > 100 µM | SF-539 > 100 µM | PC-3 > 91 µM | Hs-578T > 100 µM | LOX IMVI 23.7 µM | UACC-62 > 81.8 µM | MOLT-4 40.6 µM | NCI-H460 39.7 µM | EKVX > 100 µM | K562 30.6 µM | ACHN > 100 µM | A498 > 100 µM | NCI-H522 69.7 µM | SK-OV-3 > 100 µM

COC1(OC)N=C(N)C2(C#N)C(C)=C3NCN(C)N=C3C12C#N (stereo not given)
inactive: CCRF-CEM > 10 µM | RPMI-8226 > 100 µM | CAKI-1 > 100 µM | NCI-H23 > 100 µM | RXF 393 > 100 µM | MDA-N > 100 µM | HOP-92 > 100 µM | SF-539 > 100 µM | PC-3 > 100 µM | Hs-578T > 100 µM | LOX IMVI > 100 µM | UACC-62 > 100 µM | EKVX > 100 µM | K562 > 100 µM | ACHN > 100 µM | A498 > 100 µM | NCI-H522 > 100 µM | SK-OV-3 > 100 µM

CCOC(=O)c1cc2nc3ccccc3c(=O)n2c2ccccc12
inactive: CCRF-CEM > 10 µM | RPMI-8226 > 10 µM | CAKI-1 > 10 µM | NCI-H23 > 10 µM | RXF 393 > 10 µM | MDA-N > 10 µM | HOP-92 > 10 µM | SF-539 > 10 µM | PC-3 > 10 µM | Hs-578T > 10 µM | LOX IMVI > 10 µM | UACC-62 > 10 µM | NCI-H460 > 10 µM | EKVX > 10 µM | K562 > 10 µM | ACHN > 10 µM | A498 > 10 µM | NCI-H522 > 10 µM | SK-OV-3 > 10 µM

NC(CS)C(=O)NCCNc1ccc(NCCNC(=O)C(N)CS)c2c1C(=O)c1c(O)ccc(O)c1C2=O (stereo not given)
active: CCRF-CEM 0.00149 µM | RPMI-8226 0.0417 µM | CAKI-1 0.0243 µM | NCI-H23 0.0115 µM | RXF 393 0.191 µM | MDA-N 0.359 µM | HOP-92 0.00638 µM | SF-539 0.0259 µM | PC-3 0.126 µM | Hs-578T 0.137 µM | LOX IMVI 0.0185 µM | UACC-62 0.0223 µM | MOLT-4 < 0.001 µM | NCI-H460 < 0.001 µM | EKVX 0.32 µM | K562 0.0468 µM | ACHN 0.00865 µM | A498 0.0771 µM | NCI-H522 0.0279 µM | SK-OV-3 0.0124 µM

COc1ccc(CNc2ccn(C3OC(CO)C(O)C3O)c(=O)n2)cc1 (stereo not given)
inactive: CCRF-CEM 31.3 µM | RPMI-8226 86.9 µM | CAKI-1 > 100 µM | NCI-H23 88.7 µM | RXF 393 > 100 µM | MDA-N 49.9 µM | HOP-92 47.1 µM | SF-539 > 100 µM | PC-3 > 100 µM | Hs-578T > 100 µM | LOX IMVI > 100 µM | UACC-62 74.5 µM | MOLT-4 45.1 µM | NCI-H460 78.7 µM | EKVX 73.5 µM | K562 34.8 µM | ACHN > 100 µM | A498 > 100 µM | NCI-H522 70.1 µM | SK-OV-3 > 100 µM

CC(=O)Nc1nc(C)c(S(=O)(=O)NC(=O)N2c3ccccc3CCc3ccccc32)s1
inactive: CCRF-CEM 44.6 µM | RPMI-8226 > 100 µM | CAKI-1 > 100 µM | NCI-H23 > 100 µM | RXF 393 > 100 µM | MDA-N > 100 µM | HOP-92 > 100 µM | SF-539 > 100 µM | PC-3 > 100 µM | Hs-578T > 100 µM | LOX IMVI > 100 µM | UACC-62 > 100 µM | MOLT-4 89.5 µM | NCI-H460 > 100 µM | EKVX > 100 µM | K562 > 100 µM | ACHN > 100 µM | A498 > 100 µM | NCI-H522 > 100 µM | SK-OV-3 > 100 µM

Nc1ccc(Cc2ccc(N)c(C(=O)O)c2)cc1C(=O)O
inactive: CCRF-CEM > 100 µM | RPMI-8226 > 100 µM | CAKI-1 > 100 µM | NCI-H23 > 100 µM | RXF 393 > 100 µM | MDA-N > 100 µM | HOP-92 > 100 µM | SF-539 > 100 µM | PC-3 > 100 µM | Hs-578T > 100 µM | LOX IMVI > 100 µM | UACC-62 > 100 µM | NCI-H460 > 100 µM | EKVX > 100 µM | K562 > 100 µM | ACHN > 100 µM | A498 > 100 µM | NCI-H522 > 100 µM | SK-OV-3 > 100 µM

C#CCOC(=O)c1ccc(OC(C)=O)cc1
inactive: CCRF-CEM > 100 µM | RPMI-8226 > 100 µM | CAKI-1 > 100 µM | NCI-H23 > 100 µM | RXF 393 > 100 µM | MDA-N > 100 µM | HOP-92 > 100 µM | SF-539 > 100 µM | PC-3 > 100 µM | Hs-578T > 100 µM | LOX IMVI > 100 µM | UACC-62 > 100 µM | MOLT-4 > 100 µM | NCI-H460 > 100 µM | EKVX > 100 µM | K562 > 100 µM | ACHN > 100 µM | A498 > 100 µM | NCI-H522 > 100 µM | SK-OV-3 > 100 µM

COc1ccccc1N1CCN(CCCCNC(=O)c2ccc([N+](=O)[O-])o2)CC1
inactive: CCRF-CEM 21.1 µM | RPMI-8226 19.1 µM | CAKI-1 13.4 µM | NCI-H23 5.79 µM | RXF 393 8.57 µM | MDA-N 3.18 µM | HOP-92 16.6 µM | SF-539 6.1 µM | PC-3 13.6 µM | Hs-578T 15.5 µM | UACC-62 5.93 µM | MOLT-4 23.1 µM | NCI-H460 3.43 µM | EKVX 16 µM | K562 12.4 µM | ACHN 11.7 µM | A498 9.79 µM | NCI-H522 2.69 µM | SK-OV-3 15.9 µM
active: LOX IMVI 1.12 µM

Cc1cc(C)c(-n2c(C)c(C)c(C#N)c2N)c(C)c1
inactive: CCRF-CEM 15.3 µM | RPMI-8226 18.6 µM | CAKI-1 43.3 µM | NCI-H23 39 µM | RXF 393 22.1 µM | MDA-N 19.2 µM | HOP-92 19 µM | SF-539 23.4 µM | PC-3 25.8 µM | Hs-578T 43.8 µM | LOX IMVI 19.2 µM | MOLT-4 15.6 µM | NCI-H460 22.4 µM | EKVX 27.5 µM | K562 11 µM | ACHN 31.3 µM | A498 29.3 µM | NCI-H522 21 µM | SK-OV-3 33 µM
